Source: US20140106387A1, “METHOD FOR CONTROLLING NAD(P)/NAD(P)H RATIO BY OXIDOREDUCTASE” (MD BIOALPHA CO., LTD., priority 2006, published 2014)

Legend:
[1] = test system: AMPK; test: AMPK phosphorylation in HEK293 cells (Western blot); assay type: cell-based, human; conditions: 10 μM, 30 min
Protocol: Cells were lysed in SDS sample buffer (62.5 mM Tris HCl (pH 6.8), 6% (w/v) SDS, 30% glycerol, 125 mM DTT, and 0.03% (w/v) bromophenol blue). The total cell lysates were boiled at a temperature of 100° C. for 5 min and electrophoresed on a sodium dodecyl sulfate-polyacrylamide gel, and proteins were transferred on a nitrocellulose membrane. The membrane was reacted in TBS (5% (w/v) milk and 0.1% Tween 20) for 1 hour, and then reacted with primary antibodies for 2 hours. Next, the membrane was developed using HRP-conjugated secondary antibodies (Phototope-HRP Western Blot Detection Kit, New England Biolabs, Beverly, Mass.).
In order to investigate the importance of an NQO1 protein in phosphorylation of AMP kinase, HepG2, MCF-7 and HEK293 cells were seeded onto 60 mm plates at a density of 1×10^6 cells/plate. After growing the cells for 24 hours, the culture medium was replaced with a serum-free medium, and cells were treated with pyrano-1,2-naphthoquinone (10 μM) for 30 min, respectively, in combination with a control group (DMSO). Cells were lysed in RIPA buffer and amounts of all proteins were quantified using a spectrophotometer, and 50 μg of the protein was subjected to electrophoresis. AMP kinase phosphorylation was examined using Anti-AMPK and Anti-pT172-AMPK, whereas the NQO1 protein was assayed using Anti-NQO1. From the fact that AMP kinase phosphorylation by pyran-1,2-naphthoquinone (10 μM) was not observed in HEK293 cells, it can be seen that the NQO1 protein is crucial for phosphorylation of AMP kinase.
In order to examine that an activity of NQO1 is important for the phosphorylation of AMP kinase, HEK293 cells were seeded onto a 6-well plate at a density of 1×10^5 cells/well, cultured for 24 hours, and transfected with pSG5-HA-NQO1 (500 ng) and pSG5-HA-NOQ1-C609T (500 ng) plasmids. After 24 hours, the culture medium was replaced with a serum-free medium, and the cells were treated with pyrano-1,2-naphthoquinone (10 μM) and AICAR (2 mM) for 30 min, in combination with a control (DMSO). AMP kinase phosphorylation were assayed using Anti-AMPK and Anti-pT172-AMPK, whereas transfected NQO1 was assayed using Anti-HA.
In addition, AMPK phosphorylation/activation was not promoted in HEK293 cells, except for HEK293 cells transfected with wild type NQO1.

[2] = body weight and dietary intake of leptin receptor-deficient (ob/ob) mice; assay type: in vivo, mouse
Protocol: All experimental animal procedures were performed according to a guideline of Institutional Animal Care and Use Committee, Chungnam National University School of Medicine. OLETF rats were purchased from Otsuka Research Institute. Male ob/ob and C57BL/6 mice were purchased from Jackson Laboratory. Animals were housed in a breeding room maintained at a constant temperature of […] and a 12 h/12 h light/dark (L/D) cycle. 4-week-old C57BL/6 male mice were fed ad libitum high fat diet (HFD, 24% (w/w) and 45% calories as fat, Research Diets Inc., New Brunswick, N.J. 08901, US) for 7 weeks. Mouse groups were divided into an untreated group, a vehicle-treated group (calcium silicate), a pair-fed group and a candidate compound-treated group (calcium silicate-coated […] nanoparticles). Body weight and dietary intake of animals were daily measured. Upon completion of experiments, some mice of each group were anesthetized and received MRI examinations. The remaining mice of the groups were anatomized and tissue weight thereof was measured. Epidydimal fat, liver, soleus muscle and extensor digitorum longus (EDL) were prepared, and immunohistochemical, oil-red 0 and pH-sensitive ATPase staining were performed for analysis.
FIGS. 46 and 47 show changes in dietary intake/body weight and changes in body weight for 56 days, according to daily administration of pyrano-1,2-naphthoquinone into leptin receptor-deficient (ob/ob) mice at a dose of 200 mg/kg via an oral route.
This Example was intended to examine effects of varying in vivo NAD(P)^+/NAD(P)H ratio by arbitrary external supply of NAD(P)^+, a method capable of elevating the NAD(P)^+/NAD(P)H ratio in vivo. 100 mg/kg of NAD^+ was administered daily to leptin receptor-deficient (ob/ob) mice via an intraperitoneal (i.p.) route. A control mice group was given i.p. administration of physiological saline at the same dose. Changes in dietary intake/body weight (A) and changes in body weight (B) were measured for 30 days.
200 mg/kg of DMF was daily administered to leptin receptor-deficient (ob/ob) mice via an oral route. A control group received daily i.p. administration of physiological saline at the same dose. Changes in body weight (A) and changes in dietary intake (B) were measured for 30 days. It was confirmed that dietary intake of the treatment group was regulated to a 60 to 70% level of the control group.
For a variety of NQO1-activating candidate compounds as listed in Table 1 below, a decrease of NAD(P)H was measured based on the aforesaid experimental method (disclosed in Section 10 hereinbefore: NADH recycling assay). In addition, according to the experimental method given in Example 23, the body weight of ob/ob mice after four weeks was measured.
In this connection, the decreasing degree of NAD(P)H was expressed as a relative amount of NAD(P)H measured upon administration of the NQO1-activating candidate compound, by taking the amount of NAD(P)H in the absence of the NQO1 activator NAD(P)H to be 100. In addition, the degree of the body weight loss was expressed as a percentage of the body weight of ob/ob mice with administration of the NQO1-activating candidate compound, relative to the body weight of ob/ob mice without administration of the NQO1-activating candidate compound (control) after four weeks.

[3] = swimming test of physical endurance; assay type: in vivo, mouse; conditions: C57BL/6 DIO mice, single administration, 3 hours later
Protocol: This Example was intended to measure a difference in physical endurance of mice through a swimming test. For this purpose, water was placed in a cylindrical trough having a diameter of 9.5 cm and a height of 25 cm, and pyrano-1,2-naphthoquinone was administered to C57BL/6 DIO mice. 3 hours later, a sample-administered group and a control group were placed simultaneously into each cylindrical trough for measurement, and physical endurance of each group was measured and compared.

## CC1(C)CCC2=C(O1)c1ccccc1C(=O)C2=O [βL, 2,2-Dimethyl-3,4-dihydro-2H-benzo[h]chromene-5,6-dione]
[1]; HEK293 cells (no NQO1)
  AMP kinase phosphorylation: not promoted
[1]; HEK293 cells (no NQO1), listed as pyran-1,2-naphthoquinone
  AMP kinase phosphorylation: not observed
[1]; HEK293 transfected with NQO1-C609T having no NQO1 activity
  AMP kinase phosphorylation: no phosphorylation of AMP kinase
[2]; 200 mg/kg daily oral, 56 days
  body weight: effectively decreases body weight
[2]; 200 mg/kg daily oral, after around 10 days
  dietary intake level recovered, relative to control group: 70%
[2]; 200 mg/kg daily oral, at around 10 days
  dietary intake/body weight: notably decreased
[2]; after four weeks, relative to ob/ob mice without administration (control), method of Example 23
  Weight reduction In ob/ob mice (4 wk): −16.8 ± 2.9%
[3]
  increase of swimming duration compared to control: two-fold
